Reference: patent publication US5126291A, “Sulfur inhibitors of phospholipase A-Z” (American Cyanamid Company, priority 1990, dated 1992)
Counter-ions that a name gives are not always drawn. Like-named read-outs stand apart in the source and are kept apart here. Each block holds one molecule with its values, some of them ahead of it.

What was measured:
[1] = system: spontaneously hypertensive rats; assay: Hypotensive activity: mean arterial blood pressure in conscious cannulated spontaneously hypertensive rats, intravenous; format: in vivo; conditions: for Peak Mean Arterial Blood Pressure: spontaneously hypertensive rats, intravenous
Description: Under ether anesthesia, Weeks type cannulas (Peterson Technics) were surgically implanted in the abdominal aorta and vena cave of spontaneously hypertensive rats (Taconic Farms, Germantown, NY) and passed subcutaneously to the back of the neck where they were exteriorized. The cannulas were filled with saline, plugged and the rats returned to single cages where they were allowed food and water ad libitum.
At least three days following implantation of the cannulas, the rats were weighed and placed in Broome style restraining cages. The plug was removed from the aortic catheter which was connected to an arterial pressure transducer (Statham P23ID) using PE 100 polyethylene tubing and a stepdown connector fabricated from stainless steel hypodermic tubing. Mean arterial blood pressure was obtained by electrical damping of the pulse pressure channel. Heart rate was obtained from a tachograph triggered by the pulse pressure channel. All parameters were monitored on a Grass physiological recorder (Model 7).
The plug was removed from the vena cava catheter and a PE 20 polyethylene tubing extension was added using a piece of stainless steel hypodermic tubing. The other end was terminated with a 27 G needle and one ml syringe.
All drugs were dissolved in saline or a mixture of ethanol and saline (25:75V:V) such that the volume injected intravenously was 0.1 ml/100 g body weight. All drugs were flushed in with 0.2 ml saline. Blood pressure was continually monitored both before and after introduction of the test compound.

porcine pancreatic PLA2 = biological target: T1, porcine pancreatic PLA2 (Sus scrofa, UniProt P00592); assay: Inhibition of porcine pancreatic phospholipase A2 (PLA2), radiochemical assay; format: biochemical; conditions: for inhibition at 10 µg/mL / Percent Inhibition at 10 ug/ml: 10 ug/ml inhibitor; for inhibition at 10 µg/mL: read-out: Percent Inhibition at 10 ug/ml
T1 construct: purchased Sigma
Description: 4-((3-(Dimethylamino)propyl)thio)-1-(hexadecyloxy)-2-butanol, acetate was prepared by the method of Example 64 as a 1 mg/ml solution in methanol. Inhibition of phospholipase A2 activity was measured by a radiochemical assay in which labeled synthetic phosphatidylcholine substrate is converted by porcine pancreatic PLA2 to free radiolabeled arachidonate and lyso phosphatidyl choline. In the assay, radiolabeled arachidonate is extracted from the reaction mixture and separated from unreacted substrate by column or thin layer chromatography. The radioactivity (cpm) in samples is quantified in liquids scintillation counting.
[…] The combined substrate was then redissolved in 0.1M Tris-HCl buffer, pH 9.0, containing 10 mM calcium chloride and 10 mM sodium taurocholate detergent. The mixture was sonicated for 10 to 30 seconds in a Kontes Sonifier to yield a homogeneous dispersion. The "mixed" micellar substrate was clear. An aliquot was reserved for a cpm count (total substrate). The total reaction volume was 500 ul; siliconized glassware or plasticware was used throughout. Porcine pancreatic phospholipase A2 enzyme (Sigma, sp. act. […] U/mg protein and preferably 900 U/mg protein) was diluted 1:750 or 1:1000 in 0.1M Tris-HCl buffer, pH 9.0 (without Ca^++ and detergent).
The test compound was diluted appropriately in phosphate buffered saline. 10 ul aliquots of the stock solution were either incubated with enzyme in buffer in the absence of Ca^++ detergent or were blown under N2 stream with the substrate prior to the addition of buffer. The substrate and buffer were kept on ice until the reaction was started by the addition of enzyme (preincubated with test compound or diluent, or fresh enzyme) to the substrate dispersion in buffer.
Samples (600 ul) were extracted with 3 ml of CHC13 /MeOH solution (2:1) for thin layer chromatography. The phases were separated by gentle centrifugation at 700 rpm for 5 minutes. The organic phase was recovered for either thin layer or column chromatography separation.
For thin layer chromatography, labeled arachidonate extracted with CHC13 /MeOH solution was separated on Silica Gel G TLC plates (Analtech). Twenty ul of a 2 mg/ml internal standard solution of arachidonic acid (Sigma) was combined with 2 to 3 ml of the organic phase. The entire mixture was dried under nitrogen and redissolved in 50 ul of CHC13 /MeOH solution (2:1). A 20 ul sample was counted in 10 ml of Beckman Redi-solv Scintillation fluid HP and spotted in Silica Gel G plates. The solvent system used to develop the plate was a CHC13 /MeOH/13.5N NH3 /H2 O solution (70:30:4:1). Thin layer chromatography plates were developed in a glass chamber for 1 to 11/2 hours, air dried, and the spots visualized in an iodine vapor chamber. Standards of phosphatidyl/choline, lyso phosphatidyl choline, and arachidonic acid (Sigma) were made up as 2 mg/ml stocks in CHC13 /MeOH solution (2:1) and were spotted on the thin layer chromatography plates. Spots corresponding to arachidonate and phospholipid were scraped and counted in 10 ml Beckman Redi-Solv HP scintillation fluid.
For column chromatography, samples were extracted with hexane/diether solution and the upper organic phase recovered. An aliquot was applied to a Silicar CC4 (Maleinckrodt) column. Columns were prepared using 1 ml of 1:1 slurry of Silicar CC4 (Maleinckrodt) in hexane/ether solution in a Pasteur pipet (approximately 2 cm height). Columns were rinsed with 500 ul of hexane/ether solution before adding the sample (300-600 ul) to the columns. Columns were eluted with a total of 6 ml of hexane/ether solution. The 6 ml sample was counted in 10 ml of Beckman Redi-Solv HP scintillation fluid. Thin layer chromatography analysis confirmed that the radioactivity eluted was arachidonate.
3-((3-(Acetyloxy)-4-(hexadecyloxy)-butyl)-thio)-N,N,N-trimethyl-1-propanaminium, iodide was prepared by the method of Example 65 as a 1 mg/ml solution in methanol. […]

[2] = 1000 uM substrate concentration

T1 sequence (P00592 23-146): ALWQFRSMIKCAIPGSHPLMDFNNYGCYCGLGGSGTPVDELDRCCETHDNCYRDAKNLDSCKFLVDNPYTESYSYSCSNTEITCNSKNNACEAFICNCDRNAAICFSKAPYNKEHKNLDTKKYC

Molecule: CCCCCCCCCCCCCCCCOCC(COP(=O)([O-])OC(C)C[N+](C)(C)C)OC(C)=O (stereo not shown) [7-(Acetyloxy)-4-hydroxy-N,N,N,2-tetramethyl-3,5,9-trioxa-4-phosphapentacosan-1-aminium, 4-oxide, hydroxide, inner salt]
- Peak Mean Arterial Blood Pressure ([1]; dose 0.3 ug/kg): -17.4 mm,Hg
- Peak Mean Arterial Blood Pressure ([1]; dose 1.0 ug/kg): -40.2 mm,Hg
- Peak Mean Arterial Blood Pressure ([1]; dose 3.0 ug/kg): -88.8 mm,Hg
- Peak Mean Arterial Blood Pressure ([1]; dose 10.0 ug/kg): -96.5 mm,Hg
- Peak Mean Arterial Blood Pressure ([1]; dose 30.0 ug/kg): -103.4 mm,Hg

- IC50 (porcine pancreatic PLA2; 2 nM substrate concentration): 2.52 µM
- IC50 (porcine pancreatic PLA2; 10 uM substrate concentration): 10.1 µM
- inhibition at 10 µg/mL (porcine pancreatic PLA2; 2 nM substrate concentration): 96.6 ± 4.6%
- inhibition at 10 µg/mL (porcine pancreatic PLA2; 10 uM substrate concentration): 63.2 ± 13.5%
- inhibition at 10 µg/mL (porcine pancreatic PLA2; 100 uM substrate concentration): 45 ± 13.6%
- inhibition at 10 µg/mL (porcine pancreatic PLA2; 500 uM substrate concentration): 15.4 ± 5.7%
- inhibition at 10 µg/mL (porcine pancreatic PLA2; [2]): 8.2 ± 4.6%
- IC50 (porcine pancreatic PLA2; 100 uM substrate concentration): 20 µM
- IC50 (porcine pancreatic PLA2; 500 uM substrate concentration): 96.8 µM
- IC50 (porcine pancreatic PLA2; [2]): 137 µM
Molecule: CCCCCCCCCCCCCCCCOCC(CCSCCC[N+](C)(C)C)OC(C)=O (stereo not shown) [Example 68, 3-((3-(Acetyloxy)-4-(hexadecyloxy)-butyl)-thio)-N,N,N-trimethyl-1-propanaminium, iodide]

Molecule: CCCCCCCCCCCCCCCCOCC(COP(=O)([O-])Oc1cccc(C[N+](C)(C)C)c1)OC(C)=O (stereo not shown) [3-(((2-(Acetyloxy)-3-(hexadecyloxy)propoxy)hydroxyphosphinyl)oxy)-N,N,N-trimethylbenzenemethanaminium, hydroxide inner salt]
- Peak Mean Arterial Blood Pressure ([1]; dose 0.1 ug/kg): -10.4 mm,Hg
- Peak Mean Arterial Blood Pressure ([1]; dose 0.3 ug/kg): -16.3 mm,Hg
- Peak Mean Arterial Blood Pressure ([1]; dose 1.0 ug/kg): -37.2 mm,Hg
- Peak Mean Arterial Blood Pressure ([1]; dose 3.0 ug/kg): -83.9 mm,Hg
- Peak Mean Arterial Blood Pressure ([1]; dose 10.0 ug/kg): -91.0 mm,Hg

- IC50 (porcine pancreatic PLA2; 2 nM substrate concentration): 18.6 µM
- IC50 (porcine pancreatic PLA2; 10 uM substrate concentration): 45.7 µM
- inhibition at 10 µg/mL (porcine pancreatic PLA2; 2 nM substrate concentration): 54%
- inhibition at 10 µg/mL (porcine pancreatic PLA2; 10 uM substrate concentration): 33 ± 12.7%
- IC50 (porcine pancreatic PLA2; 100 uM substrate concentration): 96.7 µM
- IC50 (porcine pancreatic PLA2; 500 uM substrate concentration): 226 µM
Molecule: CCCCCCCCCCCCCCCCOCC(CCSCCCN(C)C)OC(C)=O (stereo not shown) [Example 67, 4-((3-(Dimethylamino)propyl)thio)-1-(hexadecyloxy)-2-butanol, acetate]

Molecule: CCCCCCCCCCCCCCc1cccc(OCC(COP(=O)([O-])OCC(C)[N+](C)(C)C)OC(C)=O)c1 (stereo not shown) [7-Hydroxy-N,N,N-trimethyl-2-oxo-4-((3-tetradecylphenoxy)methyl)3,6,8-trioxa-7-phosphaundecan-10-aminium, 7-oxide, hydroxide, inner salt]
- Peak Mean Arterial Blood Pressure ([1]; dose 0.03 ug/kg): -9.8 mm,Hg
- Peak Mean Arterial Blood Pressure ([1]; dose 0.1 ug/kg): -17.6 mm,Hg
- Peak Mean Arterial Blood Pressure ([1]; dose 0.3 ug/kg): -78.7 mm,Hg
- Peak Mean Arterial Blood Pressure ([1]; dose 1.0 ug/kg): -95.9 mm,Hg

Molecule: CCCCCCCCCCCCCCCCOCC(CCS(=O)(=O)CCC[N+](C)(C)C)OC(C)=O.[Cl-] (stereo not shown) [3-((3-(Acetyloxy)-4-(hexadecyloxy)butyl)sulfonyl)-N,N,N-trimethyl-1-propanaminium chloride]
- reduced the blood pressure in the spontaneously hypertensive rat ([1]; dose of 10 mg/kg (iv), value is a reduction): 20 mm Hg

Molecule: CCCCCCCCCCCCCCCCOCC(COP(=O)([O-])OCC(c1ccccc1)[N+](C)(C)C)OC(C)=O (stereo not shown) [7-(Acetyloxy)-4-hydroxy-N,N,N-trimethyl-1-phenyl-3,5,9-trioxa-4-phosphapentacosan-1-aminium, 4-oxide hydroxide inner salt]
- Peak Mean Arterial Blood Pressure ([1]; dose 10.0 ug/kg): -59.0 mm,Hg

Molecule: CCCCCCCCCCCCCCCCOCC(COP(=O)([O-])OCC(C)[N+](C)(C)C)OC(C)=O (stereo not shown) [8-(Acetyloxy)-5-hydroxy-N,N-N-trimethyl-4,6,10-trioxa-5-phosphahexacosan-2-aminium, 5-oxide, hydroxide, inner salt]
- Peak Mean Arterial Blood Pressure ([1]; dose 0.03 ug/kg): -16.4 mm,Hg
- Peak Mean Arterial Blood Pressure ([1]; dose 0.1 ug/kg): -36.3 mm,Hg
- Peak Mean Arterial Blood Pressure ([1]; dose 0.3 ug/kg): -58.6 mm,Hg
- Peak Mean Arterial Blood Pressure ([1]; dose 1.0 ug/kg): -103.1 mm,Hg
- Peak Mean Arterial Blood Pressure ([1]; dose 3.0 ug/kg): -118.3 mm,Hg

Molecule: 3-((3-(Acetyloxy)-4-(hexadecyloxy)-butyl)-thio)-N,N,N-trimethyl-1-propanaminium, chloride [Example 69]
- Ic50 (porcine pancreatic PLA2; 2 nM substrate concentration): 2.8 µg/mL
- Ic50 (porcine pancreatic PLA2; 10 uM substrate concentration): 11.52 ± 10.58 µg/mL
- Percent Inhibition at 10 ug/ml (porcine pancreatic PLA2; 2 nM substrate concentration): 77%
- Percent Inhibition at 10 ug/ml (porcine pancreatic PLA2; 10 uM substrate concentration): 55.3 ± 16.5%
- Percent Inhibition at 10 ug/ml (porcine pancreatic PLA2; 100 uM substrate concentration): 23%
- Ic50 (porcine pancreatic PLA2; 100 uM substrate concentration): 45.56 ± 23.60 µg/mL
